Results from the supplement of paper PMC6045584.

Compound: Oc1ccc(/C=C/c2cc(O)cc(O)c2)cc1 [RESVERATROL]
Test: area under dose-response curve of surviving fraction (unscaled, Aref=0) (surviving fraction x log10(nM)); higher = more resistant
Settings: exposure time: 5 days; dose range 0.5-1000 nM
Outline: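 Inhibitor was applied to tumour cell lines at eight concentrations (0.5 to 1000 nM) for five days in 384-well plates. Luminescence from CellTiter-Glo, scaled to DMSO-only wells, gave surviving fractions in three screens per line, and these were fitted by 3-parameter logistic regression with the drc R package. The area under the curve is an unscaled activity area. Aref was 0, and dose was on a log10 scale.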

Test System	area under dose-response curve
22RV1 PROSTATE	3.4
93VU HEADNECK	3.7
A549 LUNG	3.51
ASKA SYNOVIAL	3.84
BT20 BREAST	3.71
BT549 BREAST	3.52
C33A CERVIX	3.17
CADOES1 SOFT TISSUE	3.21
CAL51 BREAST	3.35
CAL72 BONE	3.49
CAL120 BREAST	3.3
CASKI CERVIX	3.22
CHLA90 AUTONOMIC GANGLIA	3.38
CME SYNOVIAL	4.4
COLO320DM LARGE INTESTINE	3.54
DU4475 BREAST	3.25
H23 LUNG	3.42
HCC1395 BREAST	3.66
HCC1806 BREAST	3.7
HCC1954 BREAST	3.7
HCT15 LARGE INTESTINE	3.39
HELA CERVIX	3.64
HOS BONE	3.43
HOSMNG BONE	2.77

Test System	area under dose-response curve
HSSYII SYNOVIAL	3.27
HT1080 SOFT TISSUE	3.35
HU09 BONE	3.57
HUO3N1 BONE	3.49
JIMT1 BREAST	3.4
JURKAT HAEMATOPOIETIC AND LYMPHOID TISSUE	3.34
KPD BONE	3.44
LM7 BONE	3.63
LNCAP PROSTATE	3.05
MCF7 BREAST	3.21
MDAMB134 BREAST	3.44
MDAMB157 BREAST	3.39
MDAMB231 BREAST	3.26
MDAMB361 BREAST	2.99
MDAMB436 BREAST	3.36
MDAMB453 BREAST	3.63
MDAMB468 BREAST	3.56
MFM223 BREAST	3.94
MG63 BONE	3.52
MHM BONE	3.41
NCIH441 LUNG	3.72
NOS1 BONE	3.77
NY BONE	3.32
OS25HAL BONE	3.4

Test System	area under dose-response curve
OSHN BONE	3.6
PCI30 HEADNECK	3.54
RDES SOFT TISSUE	4.59
S68 BREAST	3.12
SAOS2 BONE	4.04
SCC003 HEADNECK	3.64
SCC36 HEADNECK	3.87
SCC47 HEADNECK	3.79
SG27 HEADNECK	3.59
SG32 HEADNECK	3.38
SG43 HEADNECK	2.91
SIHA CERVIX	3.61
SJSA1 BONE	5.61
SKBR3 BREAST	3.5
SNU475 LIVER	3.3
SUM44 BREAST	3.94
SUM149 BREAST	3.39
SUM149.B1*.S BREAST	3.7
SUM159 BREAST	3.53
SYO1 SYNOVIAL	3.23
T47D BREAST	3.51
U2OS BONE	3.48
VCAP PROSTATE	3.11
ZR751 BREAST	3.31
